The results in this text go back to article PMC10122656, “Siglec-6 mediates the uptake of extracellular vesicles through a noncanonical glycolipid binding pocket” (Nature Communications, 2023).

Holding throughout (experiment): Cell assay (liposome/EV binding, flow cytometry)
What all share (assay type): cell-based

One assay has as its target T1, WT Siglec-6 CHO cells (Homo sapiens, UniProt O43699).
T1 construct: expressed in transfected cells
The following applies: for liposome binding, fluorescence signal (replicates): cells not given; for log10(MFI AF647) of GLL relative to log10(MFI AF647) of the same GLL against UT CHO cells (Fig. 2a): Sig-6 WT, 3 mol% ganglioside liposomes; for Binding of liposomes to WT Siglec-6 CHO cells relative to liposomes formulated without a ligand (Fig. 3c): 3 mol% glycolipid, Cer = native ganglioside, Amide = amide-linked nGL. The method in brief:
(§1)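 CHO cells expressing the indicated Siglec (wild-type or R-to-A mutant) were incubated 30 min at 37 °C with 50 µM fluorescent DSPC/cholesterol/PEG-DSPE liposomes (~130 nm, Siglec ligand-bearing) or 50 µg/mL EVs in DMEM F12 5% FBS. After washing and anti-Siglec staining on ice, binding was measured by flow cytometry on Siglec-positive gated cells.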

The target in assay [1] is T2, Siglec-10 R119A CHO cells (Homo sapiens, UniProt Q96LC7, R119A).
T2 construct: expressed in transfected cells
T2 sequence (Q96LC7 17-697 R119A): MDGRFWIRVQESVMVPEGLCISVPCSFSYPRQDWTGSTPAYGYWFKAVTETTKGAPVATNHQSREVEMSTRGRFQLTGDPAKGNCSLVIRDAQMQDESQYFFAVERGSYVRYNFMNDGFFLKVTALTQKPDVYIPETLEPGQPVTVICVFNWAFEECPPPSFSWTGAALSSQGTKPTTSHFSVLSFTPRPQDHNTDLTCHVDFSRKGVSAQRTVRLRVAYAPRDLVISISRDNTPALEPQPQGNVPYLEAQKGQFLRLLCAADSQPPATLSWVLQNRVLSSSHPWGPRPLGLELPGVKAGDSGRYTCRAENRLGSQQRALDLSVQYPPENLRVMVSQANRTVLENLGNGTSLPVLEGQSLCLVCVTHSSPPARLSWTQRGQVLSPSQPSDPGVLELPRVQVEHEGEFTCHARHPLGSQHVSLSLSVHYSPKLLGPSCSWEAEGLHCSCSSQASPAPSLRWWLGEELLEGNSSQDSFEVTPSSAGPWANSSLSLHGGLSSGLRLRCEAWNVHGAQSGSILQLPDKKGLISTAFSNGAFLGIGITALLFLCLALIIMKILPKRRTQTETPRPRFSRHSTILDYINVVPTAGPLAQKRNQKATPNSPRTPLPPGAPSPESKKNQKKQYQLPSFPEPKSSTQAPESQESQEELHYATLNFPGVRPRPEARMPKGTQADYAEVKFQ
The note with it: Sig-10 R119A; 3 mol% ganglioside liposomes; replicates. Summed up: (§2)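 Extruded PEGylated DSPC/cholesterol liposomes (100 nm filter; 130 ± 35 nm) bearing Siglec ligand and AF647 lipids. Cells + 50 µM liposome or 50 µg/mL EV, DMEM F12/5% FBS, 37 °C, 30 min; washed; anti-Siglec 1:250, ice 30 min; flow, Siglec+ gate.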

The target of another assay is T3, Siglec-11 WT CHO cells (Homo sapiens, UniProt Q96RL6).
T3 construct: expressed in transfected cells
T3 sequence (Q96RL6 28-698): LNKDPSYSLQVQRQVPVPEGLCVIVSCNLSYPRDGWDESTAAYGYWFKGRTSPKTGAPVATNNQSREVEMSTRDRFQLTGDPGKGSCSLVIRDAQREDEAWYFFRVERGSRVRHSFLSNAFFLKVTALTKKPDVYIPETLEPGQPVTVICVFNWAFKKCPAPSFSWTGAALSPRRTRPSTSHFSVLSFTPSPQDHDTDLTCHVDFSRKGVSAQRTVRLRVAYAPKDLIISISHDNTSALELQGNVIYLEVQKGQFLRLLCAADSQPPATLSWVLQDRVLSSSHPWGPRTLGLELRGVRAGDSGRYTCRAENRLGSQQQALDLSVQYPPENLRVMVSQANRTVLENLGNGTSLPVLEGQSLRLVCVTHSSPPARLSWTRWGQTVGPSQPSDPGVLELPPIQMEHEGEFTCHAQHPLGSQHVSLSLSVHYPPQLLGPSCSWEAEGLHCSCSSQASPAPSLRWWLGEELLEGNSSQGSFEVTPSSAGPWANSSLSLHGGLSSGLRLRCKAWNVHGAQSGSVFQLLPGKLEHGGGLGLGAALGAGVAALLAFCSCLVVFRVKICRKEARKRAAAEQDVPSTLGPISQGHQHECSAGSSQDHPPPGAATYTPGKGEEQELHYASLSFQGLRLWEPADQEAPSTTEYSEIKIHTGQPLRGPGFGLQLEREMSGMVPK
The following applies: Sig-11 WT; 3 mol% ganglioside liposomes; replicates. The method in brief:
as §1

For another assay, the target named is T4, CD33 R119A CHO cells (Homo sapiens, UniProt P20138, R119A).
T4 construct: expressed in transfected cells
The following applies: 3 mol% ganglioside liposomes, replicates. Summed up:
as §2

The mark [2] stands for this setting: sheet Figure S17, three experiments, each with its own Naked control.

“And” between values parts separate entries of the source, which are not always exact repeats. Equal entries are not always repeated.
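For liposome binding, fluorescence signal (replicates) in this document: AF647 fluorescence intensity from 0.1 mol% AF647–PEG45–DSPE in liposomes.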

T4 sequence (P20138 18-364 R119A): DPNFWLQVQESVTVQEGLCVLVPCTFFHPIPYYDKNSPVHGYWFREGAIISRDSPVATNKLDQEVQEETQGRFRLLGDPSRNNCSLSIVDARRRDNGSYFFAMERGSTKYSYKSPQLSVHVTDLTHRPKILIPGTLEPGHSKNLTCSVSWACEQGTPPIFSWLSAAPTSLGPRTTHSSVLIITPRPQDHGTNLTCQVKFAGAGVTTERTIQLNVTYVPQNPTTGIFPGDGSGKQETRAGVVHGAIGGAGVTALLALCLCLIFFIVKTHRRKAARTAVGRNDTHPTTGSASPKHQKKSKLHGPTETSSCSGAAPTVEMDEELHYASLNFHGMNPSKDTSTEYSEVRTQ
T1 sequence (O43699 27-453): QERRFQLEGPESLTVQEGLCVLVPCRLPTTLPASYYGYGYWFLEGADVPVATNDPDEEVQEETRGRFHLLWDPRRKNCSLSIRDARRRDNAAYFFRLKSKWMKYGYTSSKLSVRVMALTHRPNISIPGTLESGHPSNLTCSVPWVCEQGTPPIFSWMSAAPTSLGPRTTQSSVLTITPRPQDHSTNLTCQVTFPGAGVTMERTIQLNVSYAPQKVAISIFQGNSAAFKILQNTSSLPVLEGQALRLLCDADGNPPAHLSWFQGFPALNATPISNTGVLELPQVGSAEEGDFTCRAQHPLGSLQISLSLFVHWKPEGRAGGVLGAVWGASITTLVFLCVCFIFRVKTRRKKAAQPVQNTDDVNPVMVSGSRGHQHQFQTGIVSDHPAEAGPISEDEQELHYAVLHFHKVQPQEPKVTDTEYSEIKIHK

As to `CCCCCCCCCCCCCCCCOCC(COCCCCCCCCCCCCCCCC)OCc1cn(CCO[C@@H]2O[C@H](CO)[C@@H](O[C@@H]3O[C@H](CO)[C@H](O)[C@H](O[C@]4(C(=O)O)C[C@H](O)[C@@H](NC(C)=O)[C@H]([C@H](O)[C@H](O)CO)O4)[C@H]3O)[C@H](O)[C@H]2O)nn1` [nGL 5], the “nGLL binding to WT Siglec-6 CHO cells (in words)” value at WT Siglec-6 CHO cells (3 mol% nGL in liposomes) is given as “relatively high binding”. Also, the “Binding of nGL liposomes to WT Siglec-6 CHO cells relative to naked liposomes (Fig. 3e)” value at WT Siglec-6 CHO cells (3 mol% nGL, replicates) was 13.1 and 10.8 and 11.4 and 14. In addition, the “Binding of nGL liposomes relative to liposomes formulated with 3 mol% nGL 5 (Fig. 3g)” value at WT Siglec-6 CHO cells (WT Siglec-6 CHO cells, 3 mol% nGL, replicates) is 0.93 and 1.01 and 1.13. The “fold difference in binding to Siglec-6 between 5 and GM3” value at WT Siglec-6 CHO cells (cell assay (liposomal display)) was 34 fold. The “liposome binding, fluorescence signal (replicates)” value (from here on “liposome binding”) is 3983 and 3299 and 3469 and 4281 on WT Siglec-6 CHO cells (setting [2]); 2909 and 2902 and 3112 and 3410 at WT Siglec-6 CHO cells (sheet Figure S18a). For the same compound, the “optimal content of 5 in liposomes for engaging Siglec-6” value at WT Siglec-6 CHO cells (titration in cell assay and bead assay) is 5 mol%.
For the compound GD1b, the “log10(MFI AF647) of GLL relative to log10(MFI AF647) of the same GLL against UT CHO cells (Fig. 2a)” value is 0.23 and 0.21 (2×) and 0.22 at WT Siglec-6 CHO cells (replicates); -0.02 and -0.04 and -0.01 and 0 in assay [1]; -0.1 (3×) and -0.09 at Siglec-11 WT CHO cells; -0.06 and -0.07 and -0.04 and -0.05 at CD33 R119A CHO cells.
On to GM1, for which the “Binding of liposomes to WT Siglec-6 CHO cells relative to liposomes formulated without a ligand (Fig. 3c)” value on WT Siglec-6 CHO cells (replicates, listed as GM1 Cer) was 10 and 9.9 and 11 and 10.2. For the same compound, the “log10(MFI AF647) of GLL relative to log10(MFI AF647) of the same GLL against UT CHO cells (Fig. 2a)” value on WT Siglec-6 CHO cells (replicates) is 0.96 and 0.93 and 0.94 (2×); in assay [1], -0.02 and 0.03 and 0.04 and 0.09; at Siglec-11 WT CHO cells it was 0.11 and 0.12 and 0.14 and 0.13; on CD33 R119A CHO cells, -0.15 and -0.13 and -0.21 (2×). Further, the “GLL binding to Siglec-6 with increasing ganglioside content (in words)” value at WT Siglec-6 CHO cells (ganglioside titrated in GLLs) is reported as “decreased above an optimal ganglioside content”. Further, the “liposome binding” value on WT Siglec-6 CHO cells (setting [2]) is 2111 and 2091 and 2310 and 2148.
In the case of GD3, the “log10(MFI AF647) of GLL relative to log10(MFI AF647) of the same GLL against UT CHO cells (Fig. 2a)” value was 0.91 and 0.9 (2×) and 0.88 at WT Siglec-6 CHO cells (replicates); 0.12 (2×) and 0.09 and 0.1 in assay [1]; -0.13 and -0.11 and -0.09 (2×) on Siglec-11 WT CHO cells; 0 (2×) and 0.03 (2×) at CD33 R119A CHO cells.
On to GM3, for which the “Binding of liposomes to WT Siglec-6 CHO cells relative to liposomes formulated without a ligand (Fig. 3c)” value on WT Siglec-6 CHO cells (replicates, listed as GM3 Cer) was 0.344 and 0.335 and 0.365 and 0.403. Besides, the “log10(MFI AF647) of GLL relative to log10(MFI AF647) of the same GLL against UT CHO cells (Fig. 2a)” value on WT Siglec-6 CHO cells (replicates) is -0.2 (2×) and -0.19 and -0.17; in assay [1] it was -0.12 (2×) and -0.13 (2×); at Siglec-11 WT CHO cells, -0.1 and -0.09 and -0.11 and -0.12; at CD33 R119A CHO cells, -0.06 (2×) and -0.03 (2×). The “liposome binding” value at WT Siglec-6 CHO cells (setting [2]) is 274 and 267 and 291 and 321.
